Measured values from ChEMBL document CHEMBL5370659 (J Med Chem, 2023).
Calls of active or inactive are those of the source. The rule behind the calls is not given here.

Columns and labels:
[1] = Inhibition of BCRP in human Caco-2 cells seeded in polyethylene membranes assessed as permeation in presence or absence of E3S measured for 2 hrs by LC-MS/MS analysis based transporter assay; format: cell-based
[2] = biological target: T1, Tryptophan 5-hydroxylase 2 (Homo sapiens, UniProt Q8IWU9); experiment: Inhibition of recombinant MBP-tagged full length human THP2 using L-Trp as substrate assessed as formation of 5-HTP by measuring fluorescent property
T1 sequence (Q8IWU9 whole entry): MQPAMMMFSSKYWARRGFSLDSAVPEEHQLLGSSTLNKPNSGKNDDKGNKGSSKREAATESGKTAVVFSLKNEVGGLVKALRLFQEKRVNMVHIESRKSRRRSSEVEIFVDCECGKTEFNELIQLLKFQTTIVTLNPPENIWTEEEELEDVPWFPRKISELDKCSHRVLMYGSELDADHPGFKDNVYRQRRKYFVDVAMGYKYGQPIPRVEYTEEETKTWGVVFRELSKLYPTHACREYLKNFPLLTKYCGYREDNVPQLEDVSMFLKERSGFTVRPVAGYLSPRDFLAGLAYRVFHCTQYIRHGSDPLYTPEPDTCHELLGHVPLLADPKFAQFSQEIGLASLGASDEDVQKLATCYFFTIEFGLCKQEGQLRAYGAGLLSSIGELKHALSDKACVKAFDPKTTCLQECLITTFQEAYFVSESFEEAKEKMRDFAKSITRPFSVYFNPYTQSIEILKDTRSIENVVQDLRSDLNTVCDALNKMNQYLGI

[3] = Plasma protein binding in human; format: ADME, cell-free; details: read-out: PPB (converted)
[4] = Plasma protein binding in rat; format: ADME, cell-free; details: read-out: PPB (converted)
[5] = Apparent permeability across apical to basal side in human Caco-2 cells at pH 6.5/7.4 measured at 5 uM by LC-MS/MS analysis; format: ADME, cell-based; details: Caco-2, pH 6.5
[6] = Brain homogenate binding in rat; format: ADME, tissue-based
[7] = biological target: T2, Tryptophan 5-hydroxylase 1 (Homo sapiens, UniProt P17752); experiment: Inhibition of THP1 in human serotonergic BON cells assessed as reduced the intracellular serotonin levels incubated for 72 hrs; format: cell-based
T2 sequence (P17752 whole entry): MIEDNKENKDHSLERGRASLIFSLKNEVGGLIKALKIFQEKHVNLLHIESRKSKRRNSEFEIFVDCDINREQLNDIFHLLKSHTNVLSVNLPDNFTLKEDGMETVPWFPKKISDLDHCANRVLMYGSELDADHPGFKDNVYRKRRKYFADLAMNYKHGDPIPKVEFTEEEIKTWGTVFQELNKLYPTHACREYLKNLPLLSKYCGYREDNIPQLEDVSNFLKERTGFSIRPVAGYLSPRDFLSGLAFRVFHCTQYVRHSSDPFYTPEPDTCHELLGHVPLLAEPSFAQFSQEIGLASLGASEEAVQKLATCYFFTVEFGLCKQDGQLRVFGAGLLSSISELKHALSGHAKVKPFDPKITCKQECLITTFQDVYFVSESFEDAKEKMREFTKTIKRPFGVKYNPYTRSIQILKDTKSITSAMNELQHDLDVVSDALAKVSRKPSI

[8] = Substrate activity at BCRP in human Caco-2 cells seeded in polyethylene membranes at 2 uM in presence or absence of E3S incubated for 2 hrs by LC-MS/MS analysis based substrate identification assay; format: ADME, cell-based; details: caco-2, 2 h
[9] = biological target: Large neutral amino acids transporter small subunit 1 (Homo sapiens, UniProt Q01650); experiment: Inhibition of human LAT1 transfected in MDCK-II cells co-transfected with 4F2HC or GFP using [3H]-leucine as probe substrate at 20 uM incubated for 10 mins by scintillation counting analysis; format: cell-based
[10] = AUCExtra in CD-1 (ICR) mouse at 50 mg/kg, po measured upto 1440 mins by LC-MS/MS analysis; format: ADME, organism-based; details: in vivo, 24 h
[11] = Oral bioavailability in CD-1 (ICR) mouse at 50 mg/kg measured upto 1440 mins by LC-MS/MS analysis; format: ADME, organism-based; details: in vivo
[12] = Half life in Sprague-Dawley rat at 10 mg/kg, iv measured upto 1440 mins by LC-MS/MS analysis; format: ADME, organism-based; details: in vivo
[13] = MRT (0 to last) in Sprague-Dawley rat at 10 mg/kg, iv measured upto 1440 mins by LC-MS/MS analysis; format: ADME, organism-based; details: in vivo
[14] = Tmax in Sprague-Dawley rat at 20 mg/kg, po measured upto 1440 mins by LC-MS/MS analysis; format: ADME, organism-based; details: in vivo
[15] = AUCExtra in Sprague-Dawley rat at 20 mg/kg, po measured upto 1440 mins by LC-MS/MS analysis; format: ADME, organism-based; details: in vivo, 24 h
[16] = AUMCExtra in Sprague-Dawley rat at 20 mg/kg, po measured upto 1440 mins by LC-MS/MS analysis; format: ADME, organism-based; details: in vivo, 24 h
[17] = Oral bioavailability in Sprague-Dawley rat at 20 mg/kg measured upto 1440 mins by LC-MS/MS analysis; format: ADME, organism-based; details: in vivo
[18] = Tmax in Sprague-Dawley rat at 50 mg/kg, po measured upto 1440 mins by LC-MS/MS analysis; format: ADME, organism-based; details: in vivo
[19] = Half life in Sprague-Dawley rat at 50 mg/kg, po measured upto 1440 mins by LC-MS/MS analysis; format: ADME, organism-based; details: in vivo
[20] = MRT (0 to last) in Sprague-Dawley rat at 50 mg/kg, po measured upto 1440 mins by LC-MS/MS analysis; format: ADME, organism-based; details: in vivo
[21] = MRT (0 to infinitive) in Sprague-Dawley rat at 50 mg/kg, po measured upto 1440 mins by LC-MS/MS analysis; format: ADME, organism-based; details: in vivo
[22] = Oral bioavailability in Sprague-Dawley rat at 50 mg/kg measured upto 1440 mins by LC-MS/MS analysis; format: ADME, organism-based; details: in vivo
[23] = Drug uptake in Sprague-Dawley rat lung at 50 mg/kg, po measured at 0.5 hrs by LC-MS/MS analysis; format: ADME, organism-based; details: read-out: Drug uptake
[24] = Drug uptake in Sprague-Dawley rat brain at 50 mg/kg, po measured at 0.5 hrs by LC-MS/MS analysis; format: ADME, organism-based; details: read-out: Drug uptake
[25] = Drug uptake in Sprague-Dawley rat lung at 20 mg/kg, po measured at 0.5 hrs by LC-MS/MS analysis; format: ADME, organism-based; details: read-out: Drug uptake
[26] = Drug uptake in Sprague-Dawley rat lung at 20 mg/kg, po measured at 2 hrs by LC-MS/MS analysis; format: ADME, organism-based; details: read-out: Drug uptake
[27] = Drug uptake in Sprague-Dawley rat brain at 20 mg/kg, po measured at 2 hrs by LC-MS/MS analysis; format: ADME, organism-based; details: in vivo, BLD = below limit of detection
Mus musculus [28] = experiment: Effect on time spent in central zone of C57BL/6N mouse at 20 mg/kg, po treated for 14 days by locomotor activity test; format: functional, organism-based; details: time 14.0 day
Mus musculus [29] = experiment: Effect on total duration of immobility in C57BL/6N mouse at 10 mg/kg, po treated for 14 days by tail suspension test; format: functional, organism-based; details: time 14.0 day
[30] = Toxicity in C57BL/6N mouse subcutaneously transplanted with mouse MC-38 cells assessed as body weight change at 50 mg/kg, po bid measured on day 20; format: organism-based; details: in vivo, sc, 480 h, time 20 day

Chain of Large neutral amino acids transporter small subunit 1 (Q01650 whole entry): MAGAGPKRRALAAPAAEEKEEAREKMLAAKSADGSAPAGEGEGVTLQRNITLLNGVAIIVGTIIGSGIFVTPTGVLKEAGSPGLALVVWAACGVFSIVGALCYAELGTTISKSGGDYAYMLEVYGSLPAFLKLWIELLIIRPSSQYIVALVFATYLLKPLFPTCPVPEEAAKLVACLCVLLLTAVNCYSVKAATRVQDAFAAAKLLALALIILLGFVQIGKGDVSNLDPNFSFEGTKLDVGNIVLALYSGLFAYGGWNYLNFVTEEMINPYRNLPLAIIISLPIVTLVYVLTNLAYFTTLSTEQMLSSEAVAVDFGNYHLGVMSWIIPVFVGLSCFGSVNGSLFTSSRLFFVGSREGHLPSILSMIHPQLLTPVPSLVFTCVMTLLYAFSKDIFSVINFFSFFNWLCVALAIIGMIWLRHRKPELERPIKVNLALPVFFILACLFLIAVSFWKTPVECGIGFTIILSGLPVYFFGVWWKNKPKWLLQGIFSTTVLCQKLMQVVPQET

Q: What does the source list for `CCn1c(=O)[nH]c(=O)c2c1nc(Cc1cn3cc(C)sc3n1)n2CC1COC1`?
A: IC50 [1]: > 100000 nM; IC50 [2]: 16 nM; fraction unbound [3]: 0.49; fraction unbound [4]: 0.52; Papp A→B at 5 µM [5]: 0.14 ×10⁻⁶ cm/s; Activity [6]: 70%; IC50 [7]: 952 nM; Activity [8]: Not Active; inhibition (INH) [9]: Not Active; %AUCextra [10]: 0.552%; bioavailability [11]: 41.3%; half-life [12]: 3.39 h; MRT last at 24 h [13]: 0.61 h; Tmax [14]: 0.42 h; %AUCextra [15]: 0.84%; AUMC [16]: 8.44%; bioavailability [17]: 33%; Tmax [18]: 0.83 h; half-life [19]: 3.41 h; MRT last at 24 h [20]: 2.63 h; MRT inf [21]: 2.75 h; bioavailability [22]: 32.7%; concentration at 0.5 h [23]: 3160 ng/g; concentration at 0.5 h [24]: 43 ng/g; concentration at 0.5 h [25]: 482 ng/g; concentration at 2 h [26]: 76 ng/g; Drug uptake [27]: Bld; Activity (Mus musculus [28]): inactive; Activity (Mus musculus [29]): inactive; Activity [30]: Non-Toxic
